Experimental findings from US10889555B2, “Sulfonamide compound or salt thereof” (Taiho Pharmaceutical Co., Ltd., priority 2016, dated 2021) are described below.

Usually IC50 stands for the concentration that inhibits the measured activity by half.

In the test the test system is HCC 1806 cells. Put plainly: Cell proliferation inhibitory effect on human breast cancer cell line (crystal violet, 72 hours). Format: cell-based. The conditions noted are these: Homo sapiens, HCC1806, 72 h, read-out: Cell growth suppression IC50. How it is done: Human derived breast cancer cell line HCC 1806 cells were daily passaged at a cell density not exceeding 80% in ATCC recommended Roswell Park Memorial Institute medium (RPMI-1640) containing 10% fetal bovine serum (FBS). In order to start the test of cell proliferation inhibitory activity, HCC 1806 cells were suspended in the above medium, after seeing at 180 μL in each well of a 96-well flat bottom plate so that the number of cells per well was 2,000, the cells were cultured at 37° C. for 1 day in an incubator containing 5% carbon dioxide gas. On the next day, the test compound was dissolved in DMSO, and 20 μL of a drug additive solution diluted serially with distilled water to 10 times of the final concentration was added to each well of the culture plate of the cells, and the cells were cultured at 37° C. for 72 hours in an incubator containing 5% carbon dioxide gas. After culturing for 72 hours, 20 μL of glutaraldehyde was added to each well and allowed to stand for 30 minutes, then the plate was washed 10 times with water and was dried. 100 μL of a stain solution (0.05% crystal violet in a 20% methanol solution) was added to each well and allowed to stand for 30 minutes, then the plate was washed 10 times with water and was dried. 100 μL of an extract solution (0.1 N NaH2PO4: 100% ethanol=1:1) was added to each well and mixed, and the mixture was measured at a wavelength of 540 nm using a plate reader (MTP-450 manufactured by Corona Electric Co., Ltd.). The growth inhibition rate was calculated from the following formula, and the concentration (IC50 (μM)) of a test compound inhibiting 50% was determined. Growth inhibition rate (%)={(C−B)−(T−B)}/(C−B)×100
T: Absorbance of well to which test compound was added
C: Absorbance of wells to which no test compound was added
B: Absorbance of wells to which no cell suspension was added
With `COc1cc(Cl)ccc1S(=O)(=O)N[C@H](c1n[nH]c(=O)o1)[C@H](C)c1c(F)ccc(C)c1C` [Example 83, 4-chloro-N-((1S,2R)-2-(6-fluoro-2,3-dimethylphenyl)-1-(5-oxo-4,5-dihydro-1,3,4-oxadiazol-2-yl)propyl)-2-methoxybenzenesulfonamide], the IC50 stood at 0.5 µM.

Consider `Cc1ccc(F)c([C@@H](C)[C@H](NS(=O)(=O)c2ccc(Cl)cc2-c2ccno2)c2n[nH]c(=O)o2)c1C` [Example 91, 4-chloro-N-((1S,2R)-2-(6-fluoro-2,3-dimethylphenyl)-1-(5-oxo-4,5-dihydro-1,3,4-oxadiazol-2-yl)propyl)-2-(isoxazol-5-yl)benzenesulfonamide], for which the IC50 was determined as 0.98 µM.

On to `Cc1ccc(F)c([C@@H](C)[C@H](NS(=O)(=O)c2ccc(Cl)c3c2OCC(=O)N3C)c2n[nH]c(=O)o2)c1C` [Example 93, 5-chloro-N-((1S,2R)-2-(6-fluoro-2,3-dimethylphenyl)-1-(5-oxo-4,5-dihydro-1,3,4-oxadiazol-2-yl)propyl)-4-methyl-3-oxo-3,4-dihydro-2H-benzo[b][1,4]oxazine-8-sulfonamide], for which the concentration for half-maximal inhibition (IC50) stood at 0.28 µM. For `CCN1CCOc2c(S(=O)(=O)N[C@H](c3n[nH]c(=O)o3)[C@H](C)c3c(F)ccc(C)c3C)ccc(Cl)c21` [Example 94, 5-chloro-4-ethyl-N-((1S,2R)-2-(6-fluoro-2,3-dimethylphenyl)-1-(5-oxo-4,5-dihydro-1,3,4-oxadiazol-2-yl)propyl)-3,4-dihydro-2H-benzo [b][1,4]oxazine-8-sulfonamide] the value was 0.48 µM; for `CC(=O)OC1(C)CCOc2c(S(=O)(=O)N[C@H](c3n[nH]c(=O)o3)[C@H](C)c3c(F)ccc(C)c3C)ccc(Cl)c21` (stereo partly drawn) [Example 95, 5-chloro-8-(N-((1S,2R)-2-(6-fluoro-2,3-dimethylphenyl)-1-(5-oxo-4,5-dihydro-1,3,4-oxadiazol-2-yl)propyl)sulfamoyl)-4-methylchroman-4-yl acetate], 0.14 µM; for `CCc1ccc(F)c([C@@H](C)[C@H](NS(=O)(=O)c2ccc(Br)cc2C(N)=O)c2n[nH]c(=O)o2)c1C` [Example 96, 5-bromo-2-(N-((1S,2R)-2-(3-ethyl-6-fluoro-2-methylphenyl)-1-(5-oxo-4,5-dihydro-1,3,4-oxadiazol-2-yl)propyl)sulfamoyl)benzamide], 0.95 µM. The figure for `CC(=O)OC1(C)CCOc2c(S(=O)(=O)N[C@H](c3n[nH]c(=O)o3)[C@H](C)c3c(F)ccc(Cl)c3C)ccc(Cl)c21` (stereo partly drawn) [Example 100, 5-chloro-8-(N-((1S,2R)-2-(3-chloro-6-fluoro-2-methylphenyl)-1-(5-oxo-4,5-dihydro-1,3,4-oxadiazol-2-yl)propyl)sulfamoyl)-4-methylchroman-4-yl acetate] is 0.39 µM.

In the case of `Cc1ccc(F)c([C@@H](C)[C@H](NS(=O)(=O)c2ccc(Cl)c3c2OCC(=O)N3CC(F)F)c2n[nH]c(=O)o2)c1C` [Example 101, 5-chloro-4-(2,2-difluoroethyl)-N-((1S,2R)-2-(6-fluoro-2,3-dimethylphenyl)-1-(5-oxo-4,5-dihydro-1,3,4-oxadiazol-2-yl)propyl)-3-oxo-3,4-dihydro-2H-benzo[b][1,4]oxazine-8-sulfonamide], the concentration for half-maximal inhibition (IC50) amounted to 0.81 µM. The figure for `Cc1ccc(F)c([C@@H](C)[C@H](NS(=O)(=O)c2ccc(Cl)c3c2OCCN3CC(F)F)c2n[nH]c(=O)o2)c1C` [Example 102, 5-chloro-4-(2,2-difluoroethyl)-N-((1S,2R)-2-(6-fluoro-2,3-dimethylphenyl)-1-(5-oxo-4,5-dihydro-1,3,4-oxadiazol-2-yl)propy1)-3,4-dihydro-2H-benzo[b][1,4]oxazine-8-sulfonamide] is 0.66 µM. Regarding `CC(=O)OC1(C(F)(F)F)CCOc2c1cccc2S(=O)(=O)N[C@H](c1n[nH]c(=O)o1)[C@H](C)c1c(F)ccc(C)c1C` (stereo partly drawn) [Example 106, 8-(N-((1S,2R)-2-(6-fluoro-2,3-dimethylphenyl)-1-(5-oxo-4,5-dihydro-1,3,4-oxadiazol-2-yl)propyl)sulfamoyl)-4-(tifluoromethyl)chroman-4-yl acetate], the IC50 was found to be 0.38 µM.

Regarding `COC(=O)c1nc(S(=O)(=O)N[C@H](c2n[nH]c(=O)o2)[C@H](C)c2c(F)ccc(C)c2C)ccc1Cl` [Example 109, methyl 3-chloro-6-(N-((1S,2R)-2-(6-fluoro-2,3-dimethylphenyl)-1-(5-oxo-4,5-dihydro-1,3,4-oxadiazol-2-yl)propyl)sulfamoyl)picolinate], the IC50 worked out at 0.4 µM.

As for `Cc1ccc(F)c([C@@H](C)[C@H](NS(=O)(=O)c2ccc(Cl)c(C(=O)N3CCOCC3)n2)c2n[nH]c(=O)o2)c1C` [Example 113, 5-chloro-N-((1S,2R)-2-(6-fluoro-2,3-dimethylphenyl)-1-(5-oxo-4,5-dihydro-1,3,4-oxadiazol-2-yl)propyl)-6-(morpholine-4-carbonyl)pyridine-2-sulfonamide], the IC50 is 0.6 µM.

For `Cc1ccc(F)c([C@@H](C)[C@H](NS(=O)(=O)c2ccc(Cl)c(C(=O)N3CCCC3)n2)c2n[nH]c(=O)o2)c1C` [Example 114, 5-chloro-N-((1S,2R) 2-(6-fluoro-2,3-dimethylphenyl)-1-(5-oxo-4,5-dihydro-1,3,4-oxadiazol-2-yl)propyl)-6-(pyrrolidine-1-carbonyl)pyridine-2-sulfonamide], the IC50 came out at 0.37 µM. The figure for `Cc1ccc(F)c([C@@H](C)[C@H](NS(=O)(=O)c2ccc(Cl)c(C(=O)N3C4CCC3COC4)n2)c2n[nH]c(=O)o2)c1C` [Example 116, 6-(3-oxa-8-azabicyclo[3.2.1]octane-8-carbonyl)-5-chloro-N-((1S,2R)-2-(6-fluoro-2,3-dimethylphenyl)-1-(5-oxo-4,5-dihydro-1,3,4-oxadiazol-2-yl)propyl)pyridine-2-sulfonamide] is 0.32 µM. For `Cc1ccc(F)c([C@@H](C)[C@H](NS(=O)(=O)c2ccc(Cl)c(C(=O)N3CC4CCC(C3)O4)n2)c2n[nH]c(=O)o2)c1C` [Example 117, 6-(8-oxa-3-azabicyclo[3.2.1]octane-3-carbonyl)-5-chloro-N-((1S,2R)-2-(6-fluoro-2,3-dimethylphenyl)-1-(5-oxo-4,5 dihydro-1,3,4-oxadiazol-2-yl)propyl)pyridine-2-sulfonamide] the value was 0.31 µM. The figure for `CC(=O)OC1(C(F)(F)F)CCOc2c(S(=O)(=O)N[C@H](c3n[nH]c(=O)o3)[C@H](C)c3c(F)ccc(C)c3C)ccc(Cl)c21` (stereo partly drawn) [Example 123, 5-chloro-8-(N-((1S,2R)-2-(6-fluoro-2,3-dimethylphenyl)-1-(5-oxo-4,5-dihydro-1,3,4-oxadiazol-2-yl)propyl)sulfamoyl)-4-(trifluoromethyl)chroman-4-yl acetate] is 0.17 µM. Consider `[2H]C([2H])([2H])C1(OC(C)=O)CCOc2c(S(=O)(=O)N[C@H](c3n[nH]c(=O)o3)[C@H](C)c3c(F)ccc(C)c3C)ccc(Cl)c21` (stereo partly drawn) [Example 129, 5-Chloro-8-(N-((1S,2R)-2-(6-fluoro-2,3-dimethylphenyl)-1-(5-oxo-4,5-dihydro-1,3,4-oxadiazol-2-yl)propyl)sulfamoyl)-4-methyl-d3-chroman-4-yl Acetate], for which the IC50 is 0.08 µM.

As to `COc1c(S(=O)(=O)N[C@H](c2n[nH]c(=O)o2)[C@H](C)c2c(F)ccc(C)c2C)ccc(Cl)c1C(C)OC(C)=O` (stereo partly drawn) [Example 144, 1-(6-chloro-3-(N-((1S,2R)-2-(6-fluoro-2,3-dimethylphenyl)-1-(5-oxo-4,5-dihydro-1,3,4-oxadiazol-2-yl)propyl)sulfamoyl)-2-methoxyphenyl)ethyl acetate], the concentration for half-maximal inhibition (IC50) is 0.96 µM.
